Results: patent US20230414626A1, “INDUCTION OF FERROPTOSIS FOR CANCER THERAPY” (Memorial Sloan Kettering Cancer Center, priority 2020, published 2023)

Test system: SREBP1 (SREBP1m)
Assay: Western blot of mature SREBP1
Type: cell-based, human
Details: RSL3-resistant cancer cells (BT474, MDA-MB-453, MCF7); CCI-779 0.5 μM
Method: FIG. 4 A-F. mTORC1 activation suppresses ferroptosis by upregulating SREBP1. (A) BT474 and MDA-MB-453 cells were treated as indicated. RSL3, 0.5 μM; CCI-779, 0.5 μM. Cell lysates were collected after 8 h and 24 h of treatment for BT474 cells and MDA-MB-453 cells, respectively, for western blot detecting […], total S6K, unprocessed SREBP1 (SREBP1(p)) and processed, mature SREBP1 (SREBP1(m)). (B) Cells were treated as indicated. RSL3, 0.5 μM for BT474 cells and 1 μM for MDA-MB-453 cells; Fer-1, 1 μM. (C) Cells were treated as in panel B. Lipid peroxidation was measured. (D) 3D spheroids derived from BT474 cells harboring control or SREBF1 sgRNA were treated as indicated. CCI-779, 0.5 μM; RSL3, 0.5 μM; Fer-1, 1 μM. Top, cell death stained by Sytox Green (scale bar, 100 μm). Bottom, cell viability. (E) SREBP1m was overexpressed in BT474 cells and determined by western blot. Cells were treated as indicated. RSL3, 0.5 μM; CCI-779, 0.5 μM. Cell death was measured (bottom panel). (F) 3D spheroids derived from BT474 cells were treated as indicated. RSL3, 0.5 μM; CCI-779, 0.5 μM; Fer-1, 1 μM. Top, cell death stained by Sytox Green (scale bar, 100 m). […]
FIG. 9 A-F. SREBP1 protects cells from ferroptosis. […] (C) Efficiency of SREBF1 Knockout in BT474, MDA-MB-453, and MCF7 cells was monitored by western blot. […] (F) SREBP1m was overexpressed in MCF7, MDA-MB-453 and A549 cells and determined by western blot. […]

CO[C@H]1C[C@@H]2CC[C@@H](C)[C@@](O)(O2)C(=O)C(=O)N2CCCC[C@H]2C(=O)O[C@H]([C@H](C)C[C@@H]2CC[C@@H](OC(=O)C(C)(CO)CO)[C@H](OC)C2)CC(=O)[C@H](C)/C=C(\C)[C@@H](O)[C@@H](OC)C(=O)[C@H](C)C[C@H](C)/C=C/C=C/C=C/1C [CCI-779, Temsirolimus]
level of the mature form of SREBP1 (SREBP1m): decreased
